Values quoted from earlier work, collected in US9731015B2, “Water-soluble lipophilic natural compound formulations” (priority 2012, dated 2017).

Legend:
[1] = humans, up to 4 g
[2] = background statement
[3] = animal pharmacokinetic studies

Row | quercetin in plasma after oral administration [1] | solubility in water [2] | bioavailability of oral doses [3] | Compound
1 | No quercetin could be found in plasma | – | – | O=c1c(O)c(-c2ccc(O)c(O)c2)oc2cc(O)cc(O)c12 [quercetin]
2 | – | insoluble in water | – | COC1=C(OC)C(=O)C(C/C=C(\C)CC/C=C(\C)CC/C=C(\C)CC/C=C(\C)CC/C=C(\C)CC/C=C(\C)CC/C=C(\C)CC/C=C(\C)CC/C=C(\C)CCC=C(C)C)=C(C)C1=O [Co-enzyme Q-10, ubidecarenone]
3 | – | virtually insoluble in water | very low bioavailability | Oc1ccc(C=Cc2cc(O)cc(O)c2)cc1 [resveratrol, 3,5,4′-trihydroxystilbene]
